From patent US6441177B1 (Hoffmann-La Roche Inc., priority 1995, dated 2002)
Values after ≈ are worked out from the molar mass of the structure shown. Like-named read-outs stand apart in the source and are kept apart here.

Assays:
[1] = test system: Candida albicans; test: Antifungal activity in vitro, microdilution method; format: cell-based; settings: growth inhibition
Description: (§1) Antifungal Activity In Vitro The compounds were tested for antifungal activity against Candida albicans, Cryptococcus neoformans and Aspergillus fumigatus using a microdilution method on microtitre plates (96 wells per plate). Yeast supplemented with 1% glucose and 0.25% di-potassium phosphate was used for the three fungal strains. The fungal cells were inoculated at 3×10^4 CFU (Colony Forming Unit) in […] of medium per well. The medium contained increasing concentrations of test substance. After incubation at 27° C. for 24 or 48 hours the turbidity in each well was measured by a microtitre plate reader. The growth inhibition was calculated in comparison to a control (without test substance). The IC50 value given in the following Table is the concentration of test substance at which the growth is inhibited by 50%.

[2] = test system: Cryptococcus neoformans; test: Antifungal activity in vitro, microdilution method; format: cell-based; settings: growth inhibition, incubation at 27° C. for 48 hours, read-out: IC50 (mg/ml) for: C. neoformans after: 48 hours
Description: as §1

[3] = test system: Aspergillus fumigatus; test: Antifungal activity in vitro, microdilution method; format: cell-based; settings: growth inhibition, incubation at 27° C. for 48 hours, read-out: IC50 (mg/ml) for: A. fumigatus after: 48 hours
Description: as §1

[4] = target: T1, human liver microsomal 2,3-oxidosqualene-lanosterol cyclase (OSC) (Homo sapiens, UniProt P48449); test: Inhibition of human liver microsomal 2,3-oxidosqualene-lanosterol cyclase (OSC); format: biochemical; settings: human liver microsomes; for IC50: concentration reducing conversion of MOS into lanosterol to 50% of control
T1 construct: Liver microsomes from a healthy volunteer were prepared in sodium phosphate buffer (pH 7.4); from tissue; host or cells: human liver microsomes from a healthy volunteer
T1 sequence (P48449 1-732): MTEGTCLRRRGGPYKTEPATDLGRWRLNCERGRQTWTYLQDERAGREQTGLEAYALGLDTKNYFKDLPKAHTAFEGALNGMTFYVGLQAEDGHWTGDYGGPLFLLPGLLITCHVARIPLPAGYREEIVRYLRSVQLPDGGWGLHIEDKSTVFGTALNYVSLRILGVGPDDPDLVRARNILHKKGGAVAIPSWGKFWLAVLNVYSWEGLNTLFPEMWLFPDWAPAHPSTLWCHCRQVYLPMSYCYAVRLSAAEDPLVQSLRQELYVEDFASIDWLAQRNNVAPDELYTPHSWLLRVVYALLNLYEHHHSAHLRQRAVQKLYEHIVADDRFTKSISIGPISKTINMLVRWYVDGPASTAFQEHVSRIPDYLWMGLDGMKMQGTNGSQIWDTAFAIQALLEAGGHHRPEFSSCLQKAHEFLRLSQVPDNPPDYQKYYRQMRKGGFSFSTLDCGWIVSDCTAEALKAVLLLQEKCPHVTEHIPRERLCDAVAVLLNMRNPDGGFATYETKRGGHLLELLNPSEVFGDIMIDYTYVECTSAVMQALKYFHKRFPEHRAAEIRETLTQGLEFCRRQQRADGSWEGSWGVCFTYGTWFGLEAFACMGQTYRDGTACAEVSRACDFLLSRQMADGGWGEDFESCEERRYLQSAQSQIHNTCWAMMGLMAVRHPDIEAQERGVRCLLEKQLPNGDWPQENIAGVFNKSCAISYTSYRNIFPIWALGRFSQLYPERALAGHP
Description: Inhibition of Human Liver Microsomal 2,3-Oxidosqualene-lanosterol Cyclase (OSC)
Liver microsomes from a healthy volunteer were prepared in sodium phosphate buffer (pH 7.4). The OSC activity was measured in the same buffer which also contained 1 mM EDTA and 1 mM dithiothreitol. The microsomes were diluted to 0.8 mg/ml protein in cold phosphate buffer. Dry [^14C]R,S-monooxidosqualene (MOS; 12.8 mCi/mmol) was diluted to 20 nCi/μl with ethanol and mixed with phosphate buffer-1% BSA (Bovine Serum Albumin). A stock solution of 1 mM test substance in DMSO was diluted to the desired concentration with phosphate buffer-1% BSA. 40 μl of microsomes were mixed with 20 μl of the solution of the test substance and the reaction was subsequently started with 20 μl of the [^14C]R,S-MOS solution. The final conditions were: 0.4 mg/ml of microsomal proteins and […] of [^14C]R,S-MOS in phosphate buffer, pH 7.4, containing 0.5% albumin, DMSO <0.1% and ethanol <2%, in a total volume of 80 μl.
After 1 hour at 37° C. the reaction was stopped by the addition of 0.6 ml of 10% KOH-methanol, 0.7 ml of water and 0.1 ml of hexane:ether (1:1, v/v) which contained 25 μg of non-radioactive MOS and 25 μg of lanosterol as the carrier. After shaking 1 ml of hexane:ether (1:1, v/v) was added to each test tube, these were again shaken and then centrifuged. The upper phase was transferred into a glass test tube, the lower phase was again extracted with hexane:ether and combined with the first extract. The entire extract was evaporated to dryness with nitrogen and the residue was suspended in 50 μl of hexane:ether and applied to a silica gel plate. Chromatographic separation was effected in hexane:ether (1:1, v/v) as the eluent. […] After drying radioactive MOS and lanosterol were observed on the silica gel plate. The ratio of MOS to lanosterol was determined from the radioactive bands in order to determine the OSC inhibition.
The test was carried out on the one hand with a constant test substance concentration of 100 nM and the percentage OSC inhibition against controls was calculated. In addition, the test was carried out with different test substance concentrations and subsequently the IC50 value was calculated, i.e. the concentration required to reduce the conversion of MOS into lanosterol to 50% of the control value.

[5] = test system: plasma cholesterol; test: Cholesterol lowering in fat-fed hamsters; format: in vivo; settings: fat-fed male golden hamsters, treated 10 days, 200 μmol (about 70-120 mg/kg/ay) in diet, percent of the control animals
Description: Cholesterol Lowering in Fat-fed Hamsters. Male golden hamsters kept individually were pre-treated for 7 days with a diet containing grated coconut (40 cal. % fat). The animals were then divided into groups each comprising 5 animals. During the treatment the animals were maintained on the same diet. Each test substance was firstly homogenized in 9 ml of water and subsequently mixed with the milled diet. The controls received only feed converted into a paste with water. The animals were treated for 10 days with a test substance dosage of 200 μmol (about 70-120 mg/kg/ay). Blood samples (200 μl) were removed via the jugular vein under light anaesthesia on the last day of the pre-treatment and one day after the last administration of test substance. The plasma cholesterol concentration was determined using a calorimetric enzyme method. The plasma lipoproteins were separated by exclusion chromatography ([…] et al., Science Tools, 36, 1992, 10-12). The total cholesterol was determined in each fraction using a fluorometric enzyme method (Gamble et al., J. Lipid Res., 19, 1978, 1068-1071) in order to calculate the amount of cholesterol in the LDL and HDL fractions. The activity on plasma cholesterol and LDL and HDL cholesterol, expressed in percent of the control animals, for the products of Examples 8a and 12 is reproduced in the following Table: […]

[6] = incubation at 27° C. for 24 hrs., read-out: IC50 (mg/ml) for: C. albicans after: 24 hrs.
[7] = incubation at 27° C. for 48 hrs., read-out: IC50 (mg/ml) for: C. albicans after: 48 hrs.
[8] = constant test substance concentration of 100 nM, 1 hour at 37° C., against controls

| SMILES | IC50 [1, 6] | IC50 [1, 7] | IC50 [2] | IC50 [3] | inhibition at 0.1 µM [4, 8] | HDL cholesterol [5] | LDL cholesterol [5] | Total cholesterol [5] | IC50 [4] | Inhibition of OSC (%) [4, 8] |
| --- | --- | --- | --- | --- | --- | --- | --- | --- | --- | --- |
| C=CCN(C)C/C=C/COc1ccc(C(=O)/C=C/C=C(C)C)cc1 [Example 26c, (E)-1-[4-[(E)-4-(allyl-methyl-amino)-but-2-enyloxy]-phenyl]-5-methyl-hexa-2,4-dien-1-one] | 0.00049 mg/mL (≈ 1.51 µM) | 0.0057 mg/mL (≈ 17.5 µM) | 0.0027 mg/mL (≈ 8.3 µM) | 0.0084 mg/mL (≈ 25.8 µM) |  |  |  |  |  |  |
| C=CCN(C)C/C=C(\C)CC/C=C(\C)CCC(=O)CCC=C(C)C [Example 54b, (9E,13E)-15-(allyl-methyl-amino)-2,9,13-trimethyl-pentadeca-2,9,13-trien-6-one] | < 0.00032 mg/mL | 0.0065 mg/mL (≈ 19.6 µM) | 0.00069 mg/mL (≈ 2.08 µM) | 0.0061 mg/mL (≈ 18.4 µM) | 73% |  |  |  |  |  |
| CN(C/C=C/COc1ccc(C(=O)c2ccc(Br)cc2)cc1)C1CC1 [Example 12, (E)-(4-bromo-phenyl)-[4-[4-(cyclopropyl-methyl-amino)-but-2-enyloxy]-phenyl]-methanone] |  |  |  |  | 84% | −23% | −54% | −25% | 19 nM |  |
| C=CCN(C)C/C=C/COc1ccc(C(=O)/C=C/C=C(C)C)cc1F [Example 25, (E)-1-[4-[(E)-4-(allyl-methyl-amino)-but-2-enyloxy]-3-fluoro-phenyl]-5-methyl-hexa-2,4-dien-1-one] | 0.00032 mg/mL (≈ 0.932 µM) | < 0.00032 mg/mL | 0.001 mg/mL (≈ 2.91 µM) | 0.00082 mg/mL (≈ 2.39 µM) |  |  |  |  |  |  |
| C=CCN(C)CCCCCCOc1ccc(C(=O)c2ccc(Br)cc2)c(N)c1 [Example 36, [2-amino-4-[6-(allyl-methyl-amino)-hexyloxy]-phenyl]-(4-bromo-phenyl)-methanone] | < 0.00032 mg/mL | 0.0011 mg/mL (≈ 2.47 µM) | < 0.00032 mg/mL | 0.0024 mg/mL (≈ 5.39 µM) | 92% |  |  |  | 8.9 nM |  |
| C=CCN(C)CCCCCCOc1ccc(C(=O)c2ccc(Br)cc2)nc1 [Example 43b, [5-[6-(allyl-methyl-amino)-hexyloxy]-pyridin-2-yl]-(4-bromo-phenyl)-methanone] | < 0.00032 mg/mL | 0.005 mg/mL (≈ 11.6 µM) | < 0.00032 mg/mL | 0.0064 mg/mL (≈ 14.8 µM) |  |  |  |  |  |  |
| CN(CCCCCCOc1ccccc1C(=O)c1ccc(Br)cc1)C1CC1 [Example 13a, [6-[6-(cyclopropyl-methyl-amino)-hexyloxy]-phenyl]-(4-bromo-phenyl)-methanone] |  |  |  |  | 82% |  |  |  |  |  |
| C=CCN(C)Cc1ccc(-c2ccc(C(F)c3ccc(Br)cc3)cc2)cc1 (racemic) [Example 48, (RS)-allyl-[4′-[(4-bromo-phenyl)-fluoro-methyl]-biphenyl-4-ylmethyl]-methyl-amine] | < 0.00032 mg/mL | < 0.00032 mg/mL | 0.00047 mg/mL (≈ 1.11 µM) | 0.018 mg/mL (≈ 42.4 µM) |  |  |  |  |  |  |
| O=C(c1ccc(Br)cc1)c1ccc(OC/C=C/CN2CCC(O)CC2)cc1 [Example 2l, (E)-(4-bromo-phenyl)-[4-[4-(4-hydroxy-piperidin-1-yl)-but-2-enyloxy]-phenyl]-methanone] |  |  |  |  | 81% |  |  |  |  |  |
| CN(CCCCCCOc1ccc(C(=O)c2ccc(Br)cc2)cc1)CC1CC1 [Example 15, (4-bromo-phenyl)-[4-[6-(cyclopropylmethyl-methyl-amino)-hexyloxy]-phenyl]-methanone] |  |  |  |  | 83% |  |  |  | 32 nM |  |
| C=CCN(C)C/C=C/COc1ccc(C(C)(O)c2ccc(Br)cc2)cc1 (racemic) [Example 8a, (E)-(RS)-1-[4-[4-(allyl-methyl-amino)-but-2-enyloxy]-phenyl]-(4-bromo-phenyl)-ethanol] |  |  |  |  |  | −18% | −51% | −30% | 18 nM | 82% |
| C=CCN(C)C/C=C/CNc1ccc(C(=O)c2ccc(Br)cc2)cc1F [Example 29] | 0.00071 mg/mL (≈ 1.7 µM) | 0.021 mg/mL (≈ 50.3 µM) | < 0.00032 mg/mL | 0.00071 mg/mL (≈ 1.7 µM) | 91% |  |  |  | 4.5 nM |  |
| C=CCN(C)CCCCCCOc1ccc(C(=O)c2ccc(Br)cc2)c(O)c1 [Example 35, [4-[6-(allyl-methyl-amino)-hexyloxy]-2-hydroxy-phenyl]-(4-bromo-phenyl)-methanone] |  |  |  |  | 97% |  |  |  |  |  |
| C=CCN(C)C/C=C/COc1ccc(C(=C)c2ccc(Br)cc2)cc1 [Example 8f, (E)-allyl-[4-[4-[1-(4-bromo-phenyl)-vinyl]-phenoxy]-but-2-enyl]-methyl-amine] |  |  |  |  | 90% |  |  |  | 13.5 nM |  |
